One may read the IC50 as the concentration that gives 50% inhibition.

The target in experiment [1] is T1, BRD4-1 (binding domain 1 of BRD4) (Homo sapiens, UniProt O60885).
T1 construct: purchased Reaction Biology Corp., Malvern, Pa; (contract assay)
Nature of the experiment: BRD4 binding domain 1 inhibition (Reaction Biology Corp.). Particulars: 10-point curve; read-out: Target IC50 BRD4-1. As for the experimental part:
(§1) The BTK, PI3K, and/or bromodomain inhibitory activity of a compound of the invention can be determined by methods known to the skilled artisan, or by procuring relevant analysis by a commercial vendor offering such services. […] In vivo, PI3K inhibition can be determined from target tissue biopsies by standard tissue processing in which cells are disrupted and Western Blot analysis is performed to determine the presence or absence of pAKT (substrate of PI3K) relative to a control sample. PI3K inhibition assays and BTK inhibition assays are known in the art and can be procured commercially through vendors such as Reaction Biology (Malvern, Pa.). The activity of a compound of the invention as an inhibitor of a bromodomain-containing protein, such as a BET protein, including BRD2, BRD3, BRD4, and/or BRDT, or an isoform or mutant thereof, may be determined in vitro, in vivo, or in a cell line. In vitro assays include assays that determine inhibition of bromodomain-containing proteins. Alternatively, inhibitor binding may be determined by running a competition experiment where a provided compound is incubated with a bromodomain-containing protein, such as a BET protein bound to known ligands, labeled or unlabeled. In vitro bromodomain inhibition assays can be performed using Alpha Screen Technology (Perkin Elmer Life and Analytical Sciences, Shelton, Conn.). In vivo bromodomain inhibition can be determined indirectly by evaluating the amount of a protein whose gene transcription is influenced or controlled by the bromodomain protein, for example, MYCN protein transcription is controlled by BRD4 (J. E. Delmore et al., Cell 2011, 146, 904-917; A. Puissant, Cancer Discov. 2013, 3, 308-323).
(§2) Compounds of the invention were analyzed for their ability to inhibit target proteins in vitro. PI3K alpha, gamma, and delta inhibition activity was determined by Thermo Fisher Scientific-Biosciences Life Sciences Solutions, Madison, Wis. The bromodomain protein inhibition (binding domain 1 and 2 of BRD4) was determined at Reaction Biology Corp., Malvern, Pa. BTK inhibition was performed by Reaction Biology Corp., Malvern, Pa.
(§3) Additional information regarding the testing procedures is available at each company's website on the internet. The IC50 data was calculated from a 10-point curve by the vendor and is compiled in ranges in the Table 6 below.

Experiment [2] addresses T2, BRD4-2 (binding domain 2 of BRD4) (Homo sapiens, UniProt O60885).
T2 construct: purchased Reaction Biology Corp., Malvern, Pa; (contract assay)
Nature of the experiment: BRD4 binding domain 2 inhibition (Reaction Biology Corp.). Particulars: 10-point curve; read-out: Target IC50 BRD4-2. As to the method: as §1, §2, §3

The target in the next experiment is T3, PI3K α (Homo sapiens, UniProt P42336).
T3 construct: purchased Thermo Fisher Scientific-Biosciences Life Sciences Solutions, Madison, Wis; (contract assay)
T3 sequence (P42336 whole entry): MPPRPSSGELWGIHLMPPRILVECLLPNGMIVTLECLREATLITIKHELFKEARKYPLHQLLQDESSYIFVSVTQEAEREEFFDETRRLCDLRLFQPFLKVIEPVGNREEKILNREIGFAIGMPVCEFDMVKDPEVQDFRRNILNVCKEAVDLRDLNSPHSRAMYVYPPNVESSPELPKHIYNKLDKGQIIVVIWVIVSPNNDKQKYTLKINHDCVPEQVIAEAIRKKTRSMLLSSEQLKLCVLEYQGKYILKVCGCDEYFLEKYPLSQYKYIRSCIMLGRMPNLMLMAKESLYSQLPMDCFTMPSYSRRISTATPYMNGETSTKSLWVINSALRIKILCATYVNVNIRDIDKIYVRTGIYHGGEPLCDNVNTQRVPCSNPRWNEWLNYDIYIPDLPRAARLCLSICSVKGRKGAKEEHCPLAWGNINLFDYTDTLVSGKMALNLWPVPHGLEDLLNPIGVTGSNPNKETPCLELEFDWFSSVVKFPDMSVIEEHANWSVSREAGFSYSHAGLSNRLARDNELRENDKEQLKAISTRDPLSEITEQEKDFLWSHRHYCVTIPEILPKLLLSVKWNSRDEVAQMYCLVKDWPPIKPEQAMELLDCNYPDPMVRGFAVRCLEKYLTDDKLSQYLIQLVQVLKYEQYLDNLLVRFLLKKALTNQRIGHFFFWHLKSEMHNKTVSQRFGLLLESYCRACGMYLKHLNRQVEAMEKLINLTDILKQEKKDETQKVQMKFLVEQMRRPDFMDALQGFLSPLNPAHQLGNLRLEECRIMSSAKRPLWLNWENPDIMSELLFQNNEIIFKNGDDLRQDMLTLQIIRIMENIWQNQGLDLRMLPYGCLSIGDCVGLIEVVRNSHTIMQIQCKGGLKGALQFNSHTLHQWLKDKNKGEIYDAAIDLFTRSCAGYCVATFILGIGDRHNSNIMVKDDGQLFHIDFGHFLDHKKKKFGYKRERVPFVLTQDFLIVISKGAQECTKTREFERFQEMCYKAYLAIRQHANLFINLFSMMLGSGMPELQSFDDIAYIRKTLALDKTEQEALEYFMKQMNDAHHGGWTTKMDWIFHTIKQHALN
T3 sequence (P27986 whole entry partner): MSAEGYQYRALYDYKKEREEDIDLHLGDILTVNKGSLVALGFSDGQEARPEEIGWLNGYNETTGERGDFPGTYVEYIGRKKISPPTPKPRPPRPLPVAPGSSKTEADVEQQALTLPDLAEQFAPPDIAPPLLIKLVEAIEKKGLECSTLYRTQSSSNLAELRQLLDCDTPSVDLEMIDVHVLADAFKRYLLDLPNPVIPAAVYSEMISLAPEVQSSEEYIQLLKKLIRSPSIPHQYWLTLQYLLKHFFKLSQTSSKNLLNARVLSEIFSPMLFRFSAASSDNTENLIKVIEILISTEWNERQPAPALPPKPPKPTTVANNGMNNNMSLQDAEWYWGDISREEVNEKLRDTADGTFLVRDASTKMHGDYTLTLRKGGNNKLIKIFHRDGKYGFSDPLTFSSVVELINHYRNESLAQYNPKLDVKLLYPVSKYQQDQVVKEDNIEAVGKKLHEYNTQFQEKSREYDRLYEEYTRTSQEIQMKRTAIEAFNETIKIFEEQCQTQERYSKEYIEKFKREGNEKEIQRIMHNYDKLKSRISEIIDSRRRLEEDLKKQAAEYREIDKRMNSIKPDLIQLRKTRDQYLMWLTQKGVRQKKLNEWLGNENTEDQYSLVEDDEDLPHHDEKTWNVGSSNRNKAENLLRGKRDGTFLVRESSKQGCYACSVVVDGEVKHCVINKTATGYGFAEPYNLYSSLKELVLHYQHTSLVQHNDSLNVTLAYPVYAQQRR
The experiment can be described thus: PI3K alpha inhibition (Thermo Fisher Scientific). Type of experiment: biochemical. As to conditions: 10-point curve; read-out: Target IC50 PI3K α. As to the method:
as §1, §2, §3

Another experiment addresses T4, PI3K δ (Homo sapiens, UniProt O00329).
T4 construct: purchased Thermo Fisher Scientific-Biosciences Life Sciences Solutions, Madison, Wis; (contract assay)
The experiment can be described thus: PI3K delta inhibition (Thermo Fisher Scientific). Type of experiment: biochemical. Particulars: 10-point curve; read-out: Target IC50 PI3K δ. As for the experimental part:
as §1, §2, §3

The target of a further experiment is T5, PI3K γ (Homo sapiens, UniProt P48736).
T5 construct: purchased Thermo Fisher Scientific-Biosciences Life Sciences Solutions, Madison, Wis; (contract assay)
T5 sequence (P48736 whole entry): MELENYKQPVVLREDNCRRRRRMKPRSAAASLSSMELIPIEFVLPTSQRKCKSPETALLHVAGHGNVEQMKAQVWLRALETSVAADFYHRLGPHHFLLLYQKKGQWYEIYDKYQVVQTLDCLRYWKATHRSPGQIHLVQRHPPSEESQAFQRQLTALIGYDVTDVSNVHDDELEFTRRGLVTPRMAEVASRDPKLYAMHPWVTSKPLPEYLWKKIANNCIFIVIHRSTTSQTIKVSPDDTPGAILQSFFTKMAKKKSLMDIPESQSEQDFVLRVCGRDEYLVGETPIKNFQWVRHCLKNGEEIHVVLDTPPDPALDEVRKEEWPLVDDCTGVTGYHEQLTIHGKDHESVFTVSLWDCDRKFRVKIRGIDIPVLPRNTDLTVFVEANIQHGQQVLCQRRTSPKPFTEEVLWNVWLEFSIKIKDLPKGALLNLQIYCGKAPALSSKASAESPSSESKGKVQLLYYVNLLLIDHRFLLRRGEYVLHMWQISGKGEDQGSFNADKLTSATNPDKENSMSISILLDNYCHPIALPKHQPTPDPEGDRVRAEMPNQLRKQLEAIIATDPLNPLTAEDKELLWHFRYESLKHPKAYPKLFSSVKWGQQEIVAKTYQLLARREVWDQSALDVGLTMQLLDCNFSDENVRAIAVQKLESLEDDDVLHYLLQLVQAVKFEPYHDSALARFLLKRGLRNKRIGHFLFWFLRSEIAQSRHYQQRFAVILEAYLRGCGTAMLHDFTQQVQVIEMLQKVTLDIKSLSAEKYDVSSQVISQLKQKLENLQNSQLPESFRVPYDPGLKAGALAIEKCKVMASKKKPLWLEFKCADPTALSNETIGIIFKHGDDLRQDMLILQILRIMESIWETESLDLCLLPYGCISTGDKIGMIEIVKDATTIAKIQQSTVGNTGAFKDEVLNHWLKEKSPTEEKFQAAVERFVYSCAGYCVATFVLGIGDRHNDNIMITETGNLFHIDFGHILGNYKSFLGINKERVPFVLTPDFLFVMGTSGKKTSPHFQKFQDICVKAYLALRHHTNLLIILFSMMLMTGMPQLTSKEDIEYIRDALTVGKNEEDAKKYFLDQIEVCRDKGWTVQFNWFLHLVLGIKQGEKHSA
Nature of the experiment: PI3K gamma inhibition (Thermo Fisher Scientific). Type of experiment: biochemical. Particulars: 10-point curve; read-out: Target IC50 PI3K γ. As for the experimental part: as §1, §2, §3

Another experiment deals with T6, BTK (WT) (Homo sapiens, UniProt Q06187).
T6 construct: purchased Reaction Biology Corp., Malvern, Pa; (contract assay)
T6 sequence (Q06187 whole entry): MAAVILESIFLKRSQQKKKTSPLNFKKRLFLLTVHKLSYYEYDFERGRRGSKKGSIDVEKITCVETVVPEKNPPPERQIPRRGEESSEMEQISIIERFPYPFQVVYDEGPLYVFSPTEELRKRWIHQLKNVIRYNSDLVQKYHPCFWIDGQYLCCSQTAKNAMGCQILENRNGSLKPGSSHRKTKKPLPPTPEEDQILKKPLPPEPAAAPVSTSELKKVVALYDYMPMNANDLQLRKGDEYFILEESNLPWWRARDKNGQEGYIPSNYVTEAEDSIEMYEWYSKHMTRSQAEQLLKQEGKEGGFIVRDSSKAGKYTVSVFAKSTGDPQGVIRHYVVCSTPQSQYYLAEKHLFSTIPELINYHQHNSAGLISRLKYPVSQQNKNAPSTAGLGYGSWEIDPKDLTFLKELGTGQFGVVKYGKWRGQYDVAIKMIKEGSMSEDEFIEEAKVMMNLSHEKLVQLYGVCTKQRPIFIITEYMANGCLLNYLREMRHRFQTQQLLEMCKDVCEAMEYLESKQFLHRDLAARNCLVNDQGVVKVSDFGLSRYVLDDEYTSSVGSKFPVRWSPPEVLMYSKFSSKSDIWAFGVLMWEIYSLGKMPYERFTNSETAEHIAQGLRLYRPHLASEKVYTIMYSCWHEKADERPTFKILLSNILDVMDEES
Nature of the experiment: native BTK inhibition (Reaction Biology Corp.). The format is biochemical. As to conditions: 10-point curve; read-out: Target IC50 BTK (WT). As to the method:
as §2, §3

Another experiment addresses T7, BTK (C481S) (Homo sapiens, UniProt Q06187, C481S).
T7 construct: purchased Reaction Biology Corp., Malvern, Pa; (contract assay)
The experiment can be described thus: BTK cysteine mutant C481S inhibition (Reaction Biology Corp.). The format is biochemical. Particulars: for IC50: 10-point curve, read-out: Target IC50 BTK (C481S); for Ratio C481S/WT: ratio of the BTK IC50 values, C481S over wild-type. As to the method: as §2, §3

For the next experiment, the system named is JeKo-1 cells. The experiment can be described thus: Percentage cells in apoptosis, JeKo-1. The format is cell-based, human. From the text: (§4) Additionally apoptosis data was obtained in both JeKo and Mino cells for compound 7.
Another experiment concerns Mino cells. The experiment can be described thus: Percentage cells in apoptosis, Mino. Type of experiment: cell-based, human. As to conditions: 24-hour.
Description: as §4

Bounds are passed on as bounds.

T7 sequence (Q06187 whole entry C481S): as the sequence (Q06187 whole entry) above, with C481S counted along it
T4 sequence (O00329 whole entry): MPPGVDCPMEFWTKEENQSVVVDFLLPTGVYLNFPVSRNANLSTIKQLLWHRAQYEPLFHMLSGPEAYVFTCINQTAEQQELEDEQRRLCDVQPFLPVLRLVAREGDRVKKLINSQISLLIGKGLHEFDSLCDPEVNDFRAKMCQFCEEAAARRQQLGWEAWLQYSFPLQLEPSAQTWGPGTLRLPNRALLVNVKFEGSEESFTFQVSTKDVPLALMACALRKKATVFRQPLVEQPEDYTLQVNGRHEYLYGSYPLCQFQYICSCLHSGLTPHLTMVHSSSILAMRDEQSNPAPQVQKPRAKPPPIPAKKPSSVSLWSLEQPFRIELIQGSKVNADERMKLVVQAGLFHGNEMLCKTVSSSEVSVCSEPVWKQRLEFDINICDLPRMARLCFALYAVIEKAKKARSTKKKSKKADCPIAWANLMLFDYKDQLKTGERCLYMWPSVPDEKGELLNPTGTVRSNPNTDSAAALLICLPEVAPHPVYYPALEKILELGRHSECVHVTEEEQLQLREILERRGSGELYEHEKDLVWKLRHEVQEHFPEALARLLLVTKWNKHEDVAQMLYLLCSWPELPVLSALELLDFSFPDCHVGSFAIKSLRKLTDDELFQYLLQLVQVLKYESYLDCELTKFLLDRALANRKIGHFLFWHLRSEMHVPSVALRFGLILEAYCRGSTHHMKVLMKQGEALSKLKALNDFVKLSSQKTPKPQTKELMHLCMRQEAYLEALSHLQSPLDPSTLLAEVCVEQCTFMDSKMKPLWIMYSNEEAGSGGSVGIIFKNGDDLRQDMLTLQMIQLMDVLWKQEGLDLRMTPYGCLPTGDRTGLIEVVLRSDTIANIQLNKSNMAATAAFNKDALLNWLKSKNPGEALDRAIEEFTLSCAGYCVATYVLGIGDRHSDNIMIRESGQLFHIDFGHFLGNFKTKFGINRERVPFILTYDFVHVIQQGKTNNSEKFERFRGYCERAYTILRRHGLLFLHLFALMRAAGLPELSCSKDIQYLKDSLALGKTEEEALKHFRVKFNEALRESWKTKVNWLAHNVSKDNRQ
T4 sequence (P27986 whole entry partner): as the sequence (P27986 whole entry partner) above

On to `C=CC(=O)N1CCOc2ccc(-c3csc4c(=O)cc(N5CCNCC5)oc34)cc21` [Compound 5, 1-{7-[7-Oxo-5-(1-piperazinyl)-4-oxa-1-thia-3-indenyl]-4-oxa-1-aza-2,3-dihydro-1H-naphth-1-yl}-2-propen-1-one], for which the half-maximal inhibitory concentration (IC50) in [1] was < 1 µM; in [2] it was 1 to 10 µM; at PI3K α, 10 to 30 µM; on PI3K δ it was 1 to 10 µM; at PI3K γ it was > 50 µM; at BTK (WT) it was < 1 µM. In addition, the IC50 at BTK (C481S) lay within 10 to 30 µM. Also, the “Ratio C481S/WT” value on BTK (C481S) was determined as 52.0.

In the case of `C=CS(=O)(=O)N1CCOc2ccc(-c3csc4c(=O)cc(N5CCOCC5)oc34)cc21` [Compound 21, 5-Morpholino-3-[4-(vinylsulfonyl)-1-oxa-4-aza-3,4-dihydro-2H-naphth-6-yl]-4-oxa-1-thia-7-indenone], the IC50 (in experiment [1]; in experiment [2]; at PI3K α; at PI3K δ; at PI3K γ; on BTK (WT)) was < 1 µM each time. Moreover, at BTK (C481S), the IC50 is < 1 µM. The “Ratio C481S/WT” value on BTK (C481S) is listed as 1402.

`C=CC(=O)N1CCOc2ccc(-c3csc4c(=O)cc(N5CCN(C(=O)OC(C)(C)C)CC5)oc34)cc21` [Compound 4, tert-butyl 4-[3-(4-acryloyl-1-oxa-4-aza-3,4-dihydro-2H-naphth-6-yl)-7-oxo-4-oxa-1-thia-5-indenyl]-1-piperazinecarboxylate]: the IC50 is < 1 µM in experiment [1]; 1 to 10 µM in experiment [2]; 10 to 30 µM at PI3K α; 1 to 10 µM at PI3K δ; 10 to 30 µM at PI3K γ; < 1 µM at BTK (WT). On BTK (C481S), the IC50 lay in the range of 10 to 30 µM. For the same molecule, the “Ratio C481S/WT” value on BTK (C481S) amounted to 212.

With `N#C/C(=C\C1CC1)C(=O)Nc1cccc(-c2csc3c(=O)cc(N4CCOCC4)oc23)c1` [Compound 11, (E)-3-Cyclopropyl-2-{[m-(5-morpholino-7-oxo-4-oxa-1-thia-3-indenyl)phenylamino]carbonyl}acrylonitrile], the IC50 in experiment [1] was 1 to 10 µM; in experiment [2] it was < 1 µM; on PI3K α, < 1 µM; at PI3K δ, < 1 µM; at PI3K γ it was 1 to 10 µM; on BTK (WT), 10 to 30 µM. Also, the IC50 at BTK (C481S) lay in the range of 10 to 30 µM. The “Ratio C481S/WT” value at BTK (C481S) amounted to 1.3.

For `CCCCC/C=C/C(=O)Nc1cccc(-c2csc3c(=O)cc(N4CCOCC4)oc23)c1` [Compound 10, (E)-1-[m-(5-Morpholino-7-oxo-4-oxa-1-thia-3-indenyl)phenylamino]-2-octen-1-one], the IC50 lay within 1 to 10 µM in [1]; 10 to 30 µM in [2]; 1 to 10 µM at PI3K α; 1 to 10 µM on PI3K δ; 10 to 30 µM at PI3K γ.

Regarding `C=CC(=O)Nc1cccc(-c2csc3c(=S)cc(N4CCOCC4)oc23)c1` [Compound 2, 1-[m-(5-Morpholino-7-thioxo-4-oxa-1-thia-3-indenyl)phenylamino]-2-propen-1-one], the IC50 in experiment [1] was 10 to 30 µM; in experiment [2], 1 to 10 µM; at PI3K α it was < 1 µM; at PI3K δ, < 1 µM; on PI3K γ it was < 1 µM; at BTK (WT), 1 to 10 µM. Also, the IC50 at BTK (C481S) was in the range of 10 to 30 µM. For the same molecule, the “Ratio C481S/WT” value on BTK (C481S) was 8.1.

Turning to `C=CC(=O)N1CCOc2ccc(-c3csc4c(=O)cc(N5CCN(C)CC5)oc34)cc21` [Compound 6, 1-(7[5-(4-Methyl-1-piperazinyl)-7-oxo-4-oxa-1-thia-3-indenyl]-4-oxa-1-aza-2,3-dihydro-1H-naphth-1-yl]-2-propen-1-one], the IC50 was 1 to 10 µM in [1]; 10 to 30 µM in experiment [2]; 30 to 50 µM at PI3K α; 1 to 10 µM on PI3K δ; > 50 µM on PI3K γ; < 1 µM on BTK (WT). For the same molecule, the IC50 on BTK (C481S) was in the range of 1 to 10 µM. Moreover, the “Ratio C481S/WT” value at BTK (C481S) is 11.2.

Regarding `C=CS(=O)(=O)Nc1cccc(-c2csc3c(=O)cc(N4CCOCC4)oc23)c1` [II-18, 5-morpholino-3-[m-(vinylsulfonylamino)phenyl]-4-oxa-1-thia-7-indenone], the half-inhibitory concentration (IC50) (in [1]; in experiment [2]; at PI3K α; at PI3K δ; on PI3K γ; on BTK (WT)) was < 1 µM each time. The IC50 on BTK (C481S) was < 1 µM. For the same molecule, the “Ratio C481S/WT” value at BTK (C481S) was >20K.

For the molecule `C=CC(=O)Nc1cc(OC)cc(-c2csc3c(=O)cc(N4CCOCC4)oc23)c1` [Compound 8, 1-[5-Methoxy-3-(5-morpholino-7-oxo-4-oxa-1-thia-3-indenyl)phenylamino]-2-propen-1-one], the IC50 in experiment [1] was < 1 µM; in experiment [2], 1 to 10 µM; on PI3K α it was < 1 µM; on PI3K δ, < 1 µM; at PI3K γ, < 1 µM; at BTK (WT) it was < 1 µM. Moreover, at BTK (C481S), the IC50 is > 50 µM. The “Ratio C481S/WT” value on BTK (C481S) was >60.

Take `CN[C@@H]1C[C@H]2O[C@@](C)([C@@H]1OC)n1c3ccccc3c3c4c(c5c6ccccc6n2c5c31)C(=O)NC4` [Staurosporine]: the “Percentage cells in apoptosis” value with JeKo-1 cells (JeKo-1, 24-hour, Early) is “++ (between 5% and 10%)”; in the experiment on JeKo-1 cells (JeKo-1, 24-hour, Late), “+ (less than 5%)”; in the experiment with JeKo-1 cells (JeKo-1, 24-hour, Total), “+++ (between 10% and 30%)”; with JeKo-1 cells (JeKo-1, 48-hour, Early) it was “+++ (between 10% and 30%)”; in the experiment with JeKo-1 cells (JeKo-1, 48-hour, Late), “+++ (between 10% and 30%)”; in the experiment on JeKo-1 cells (JeKo-1, 48-hour, Total), “++++ (between 30% and 50%)”. In addition, the “Percentage cells in apoptosis” value in the experiment with Mino cells (Early) was “++++ (between 30% and 50%)”; in the experiment with Mino cells (Late) it was “++++ (between 30% and 50%)”; in the experiment with Mino cells (Total), “+++++ (more than 50%)”.

In the case of `CC#CC(=O)Nc1cccc(-c2csc3c(=O)cc(N4CCOCC4)oc23)c1` [Compound 12, 1-[m-(5-Morpholino-7-oxo-4-oxa-1-thia-3-indenyl)phenylamino]-2-butyn-1-one], the IC50 in [1] is < 1 µM; in experiment [2], < 1 µM; on PI3K α, < 1 µM; at PI3K δ, < 1 µM; at PI3K γ, < 1 µM; at BTK (WT) it was 1 to 10 µM. Also, the IC50 on BTK (C481S) lay in the range of 10 to 30 µM. The “Ratio C481S/WT” value at BTK (C481S) came to 15.8.

Regarding `C=CC(=O)Nc1cccc(-c2csc3c(=O)cc(N4CCNCC4)oc23)c1.O=C(O)C(F)(F)F` [Compound 3, 1-{m-[7-Oxo-5-(1-piperazinyl)-4-oxa-1-thia-3-indenyl]phenylamino}-2-propen-1-one], the IC50 in experiment [1] is < 1 µM; in experiment [2], 1 to 10 µM; at PI3K α, > 50 µM; at PI3K δ, > 50 µM; on PI3K γ, > 50 µM; at BTK (WT), 1 to 10 µM. The IC50 on BTK (C481S) was in the range of 30 to 50 µM. Besides, the “Ratio C481S/WT” value on BTK (C481S) amounted to 24.5.

For the origin of these results see patent US20210300939A1, “Single Molecule Compounds Providing Multi-Target Inhibition of BTK and Other Proteins and Methods of Use Thereof” (SignalRx Pharmaceuticals, Inc., priority 2018, published 2021).
